In US20040006236A1, “Diaminopropionic acid derivatives” (priority 1999, published 2004):
Counter-ions that a name gives are not always drawn. Like-named read-outs stand apart in the source and are kept apart here.

Legend:
[1] = test system: T lymphocyte proliferation (C57BI/6 spleen cells with irradiated BALB/c spleen cells); assay: Mixed lymphocyte reaction (MLR), one-way; type: cell-based, mice; details: read-out: MLR IC50
In short: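 One-way murine MLR: C57BI/6 responder splenocytes proliferate against irradiated BALB/c stimulators while exposed to serially diluted antagonists in supplemented RPMI1640 for 3 days. Proliferation read as [3H]-thymidine uptake over a final 6 h pulse (0.5 μCi/well), scintillation counted.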

[2] = test system: cell-surface Mac-1 adhesion to immobilized fibrinogen (HL-60 cells); assay: Mac-1/Fibrinogen cell-based screening assay; parameters: species or system human; details: Homo sapiens, HL-60, HL-60 cells; read-out: Mac-1/Fgn Cell based Assay IC50
Procedure: Cellular Mac-1/Fibrinogen antagonist activity, defined as the ability to inhibit cell-surface Mac-1 adhesion to immobilized fibrinogen, was quantitated by a cell based assay. Human fibrinogen was coated onto 96 well microtiter plates (1 μg in 100 μL TBS) overnight at 4° C. The plates were then blocked with 150 μL of 10% polyvinyl pyrrolidone (PVP) in TBS for 1 h at 37° C. Plates were washed 3 times (150 μL each) with TBS. […] A ten-fold excess of volume of the same buffer was added and cells were centrifuged. The medium was decanted and cells were resuspended at a concentration of 2×10^6 cells/mL in RPMI/0.05% BSA/0.2 mM MnCl2. Stock solutions (10 mM in DMSO) of test compounds were diluted to 2.5 mM with DMSO. […] Each sample was further diluted 50-fold with RPMI/0.05% BSA/0.2 mM MnCl2. Equal volumes of labeled cells were then added to assay tubes containing diluted compounds. […] Cells were incubated for 10 min at 37° C. with gentle shaking, then dispensed (100 μL per well) onto fibrinogen coated plates and incubated for 30 min at 37° C./5% CO2. Unbound cells were gently washed with TBS two times.

[3] = target: T1, ICAM-1 binding to immobilized Mac-1 (Homo sapiens, UniProt P05107+P11215); assay: Mac-1/ICAM-1 screening assay (solid-phase ELISA); details: read-out: Mac-1/ICAM-1 Protein-Protein Assay IC50
T1 construct: made in house; host or cells: transfected 293 cells (Mac-1)
In short: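 Competitive solid-phase ELISA: membrane Mac-1 from transfected 293 cells coated at 3 μg/mL in 20 mM Hepes pH 7.2/0.14 M NaCl/1 mM MnCl2; compounds (0.12 nM-20 μM, 1:4 series) plus 5dICAM-Ig (40 μg/mL, added) 2 h at 37° C. Bound ICAM-Ig detected with HRP anti-human IgG Fc, TMB, A450; IC50 reported.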

T1 sequence (P05107 23-769, other chains not shown): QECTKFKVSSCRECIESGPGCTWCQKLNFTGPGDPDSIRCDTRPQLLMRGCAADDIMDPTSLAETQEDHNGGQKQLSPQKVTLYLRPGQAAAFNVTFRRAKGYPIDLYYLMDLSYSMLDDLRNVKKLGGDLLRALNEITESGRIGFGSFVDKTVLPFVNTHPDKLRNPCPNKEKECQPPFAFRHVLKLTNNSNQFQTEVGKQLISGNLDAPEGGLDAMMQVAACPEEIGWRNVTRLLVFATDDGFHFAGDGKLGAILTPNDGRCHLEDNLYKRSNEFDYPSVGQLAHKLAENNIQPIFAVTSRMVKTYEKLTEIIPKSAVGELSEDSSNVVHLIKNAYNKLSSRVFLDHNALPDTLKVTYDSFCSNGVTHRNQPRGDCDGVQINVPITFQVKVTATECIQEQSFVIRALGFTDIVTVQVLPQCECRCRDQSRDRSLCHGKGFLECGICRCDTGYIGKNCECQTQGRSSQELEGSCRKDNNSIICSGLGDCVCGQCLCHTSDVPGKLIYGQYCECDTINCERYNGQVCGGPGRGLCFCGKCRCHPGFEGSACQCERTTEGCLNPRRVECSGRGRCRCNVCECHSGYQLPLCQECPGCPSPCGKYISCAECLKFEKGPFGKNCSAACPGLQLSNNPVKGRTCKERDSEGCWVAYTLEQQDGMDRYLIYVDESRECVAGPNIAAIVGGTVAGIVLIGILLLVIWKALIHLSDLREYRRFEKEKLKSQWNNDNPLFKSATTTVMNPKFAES

IC50 [2] [nM]	IC50 [3] [nM]	Structure (SMILES)	IC50 ([1]; Mus musculus, T-lymphocyte) [nM]	IC50 ([1]; sodium salt) [nM]
63		O=C(NCc1cccc(O)c1)c1ccc(C(=O)N[C@@H](CNC(=O)c2ccoc2)C(=O)O)c(Cl)c1 [Example 259, N-[2-chloro-4-[[[(3-hydroxyphenyl)methyl]amino]carbonyl]benzoyl]-3-(furan-3-carbonyl)amino-L-alanine]	260	
	19	O=C(NCc1cccc(O)c1)c1ccc(C(=O)N[C@@H](CNC(=O)c2cccs2)C(=O)O)c(Cl)c1 [Example 305, N-[2-chloro-4-[[[(3-hydroxyphenyl)methyl]amino]carbonyl]benzoyl]-3-(thiophene-2-carbonyl)amino-L-alanine, sodium salt]		100
	24	O=C(NCc1cccc2[nH]ccc12)c1ccc(C(=O)N[C@@H](CNC(=O)c2ccoc2)C(=O)O)c(Cl)c1 [Example 316]	425	
	36	Cc1ccc(C(=O)NC[C@H](NC(=O)c2ccc(C(=O)NCc3cccc4[nH]ccc34)cc2Cl)C(=O)O)s1 [Example 317]	1750	
	98	O=C(NCc1cccc2c1CCN2)c1ccc(C(=O)N[C@@H](CNC(=O)c2cccs2)C(=O)O)c(Cl)c1 [Example 318, 3-(thiophene-2-carbonyl)amino-N-[2-chloro-4-[[(2,3-dihydro-1H-indol-4-ylmethyl)amino]carbonyl]benzoyl]-L-alanine]	1850	
	43	O=C(CCc1cccc(O)c1)c1ccc(C(=O)N[C@@H](CNC(=O)c2cccs2)C(=O)O)c(Cl)c1 [Example 319, N-[2-chloro-4-[1-oxo-3-(3-hydroxyphenyl)propyl]benzoyl]-3-(thiophene-2-carbonyl)amino-L-alanine]	665	
	76	O=C(NC[C@H](NC(=O)c1ccc(-n2nnnc2NCc2cccc(O)c2)cc1Cl)C(=O)O)c1cccs1 [Example 321]	775	
	51	O=C(NCc1cccc2[nH]cnc12)c1ccc(C(=O)N[C@@H](CNC(=O)c2cccs2)C(=O)O)c(Cl)c1 [Example 322]	3600	
26		Cc1cc(C(=O)NCc2cccc(O)c2)ccc1C(=O)N[C@@H](CNC(=O)c1cccs1)C(=O)O [Example 323]	325	
18		O=C(NCc1cccc2[nH]ncc12)c1ccc(C(=O)N[C@@H](CNC(=O)c2cccs2)C(=O)O)c(Cl)c1 [Example 327, N-[2-chloro-4-[[[(1H-indazol-4-yl)methyl]amino]carbonyl]benzoyl]-3-(thiophene-2-carbonyl)amino-L-alanine]	180	
	25	O=C(NCc1cccc2[nH]ccc12)c1ccc(C(=O)N[C@@H](CNC(=O)c2cccs2)C(=O)O)c(Br)c1 [Example 329]	420	
6		Cc1cc(C(=O)NCc2cccc(O)c2)cc(C)c1C(=O)N[C@@H](CNC(=O)c1cccs1)C(=O)O [Example 330]	32	
	68	C[C@@H](NC(=O)c1ccc(C(=O)N[C@@H](CNC(=O)c2cccs2)C(=O)O)c(Br)c1)c1cccc2ccccc12 [Example 332]	1540	
12		Cc1cc(C(=O)N[C@H](C)c2cccc3ccccc23)cc(C)c1C(=O)N[C@@H](CNC(=O)c1cccs1)C(=O)O [Example 333]	180	
	71	Nc1cccc(CNC(=O)c2ccc(C(=O)N[C@@H](CNC(=O)c3cccs3)C(=O)O)c(Br)c2)c1 [Example 334, N-[4-[[[(3-aminophenyl)methyl]amino]carbonyl]-2-bromobenzoyl]-3-(thiophene-2-carbonyl)amino-L-alanine]	495	
5.4		Cc1cc(C(=O)NCc2cccc(O)c2)cc(C)c1C(=O)N[C@@H](CNC(=O)c1ccsc1)C(=O)O [Example 336, N-[2,6-dimethyl-4-[[[(3-hydroxyphenyl)methyl]amino]carbonyl]benzoyl]-3-(thiophene-3-carbonyl)amino-L-alanine]	33	
